Results reported in US6750227B2, “Method of treatment of neuropsychiatric symptoms in patients with Alzheimer's Disease” (SmithKline Beecham Corporation, priority 1998, dated 2004).
Read-outs that look alike come from different tables or passages of the source.

Tests used:
Male Sprague Dawley rats [1] = settings: rat, 30 min pretreatment
[2] = tested on: patients with Alzheimer's Disease; settings: for Agitation score / Anxiety score / Apathy score / Delusions score / Depression score / Disinhibition score / Elation score / Hallucinations score / Irritability score / Wandering score / Total NPI score: All Patients, negative = improvement; for NPI total score, country adjusted difference vs placebo: all patients
Description: A retrospective meta-analysis on the combined data was then conducted and effects on individual symptoms assessed.
Country adjusted differences were calculated as the difference between the adjusted least square means; allowing estimates from each country to be combined in a manner whereby the most precise estimate is given more weight.
Following this analysis, a further retrospective analysis was conducted on the subgroup of patients who presented with severe behavioural disturbance at the start of the study (defined as a baseline NPI score>20). Country adjusted differences were calculated as the difference between the adjusted least square means; allowing estimates from each country to be combined in a manner whereby the most precise estimate is given more weight.

Male Sprague Dawley rats [3] = assay: Catalepsy in the rat; settings: 90 min after dosing, doses up to 0.3 mg/kg po
Male Sprague Dawley rats [4] = settings: rat, in vivo, 2.8 mg/kg, 90 min
[5] = Patients with baseline NPI >20, 25 μg bid
[6] = Patients with baseline NPI >20, 50 μg uid

CO/N=C(\C#N)[C@H]1CN2CCC1CC2 [Compound (I), [R-(Z)]-α-(methoxyimino)-α-(1-azabicyclo[2.2.2]oct-3-yl)acetonitrile]
dose at which reversal of amphetamine-induced hyperactivity reached significance (P<0.01) (Male Sprague Dawley rats [1]; 0.01-0.3 mg/kg po): 0.3 mg/kg
ED50 for reversal of amphetamine-induced hyperactivity (Male Sprague Dawley rats [1]; po, 95% CI=0.14-0.75): 0.25 mg/kg
Agitation score ([2]; 25 μg bid): −0.5
Anxiety score ([2]; 25 μg bid): −0.9
Apathy score ([2]; 25 μg bid): −1.1
Delusions score ([2]; 25 μg bid): −0.7
Depression score ([2]; 25 μg bid): −0.3
Disinhibition score ([2]; 25 μg bid): −0.7
Elation score ([2]; 25 μg bid): −1.1
Hallucinations score ([2]; 25 μg bid): −1.5
Irritability score ([2]; 25 μg bid): −0.4
Wandering score ([2]; 25 μg bid): −1.2
Total NPI score ([2]; 25 μg bid, p 0.064 vs placebo): +0.7
Agitation score ([2]; 50 μg uid): −0.6
Anxiety score ([2]; 50 μg uid): −1.5
Apathy score ([2]; 50 μg uid): −1.5
Delusions score ([2]; 50 μg uid): −0.6
Depression score ([2]; 50 μg uid): −0.6
Disinhibition score ([2]; 50 μg uid): −0.7
Elation score ([2]; 50 μg uid): −1.9
Hallucinations score ([2]; 50 μg uid): −0.7
Irritability score ([2]; 50 μg uid): −0.9
Wandering score ([2]; 50 μg uid): −1.0
Total NPI score ([2]; 50 μg uid, p 0.026 vs placebo): +0.3
Agitation endpoint score: change from baseline [2, 5]: 0
Anxiety endpoint score: change from baseline [2, 5]: −1.9
Apathy endpoint score: change from baseline [2, 5]: −1.4
Delusions endpoint score: change from baseline [2, 5]: −0.8
Depression endpoint score: change from baseline [2, 5]: 0
Disinhibition endpoint score: change from baseline [2, 5]: −0.8
Elation endpoint score: change from baseline [2, 5]: −1.7
Hallucinations endpoint score: change from baseline [2, 5]: −2.1
Irritability endpoint score: change from baseline [2, 5]: −0.7
Wandering endpoint score: change from baseline [2, 5]: −1.7
Total NPI endpoint score: change from baseline ([2]; Patients with baseline NPI >20, 25 μg bid, p 0.043 vs placebo): −4.0
Agitation endpoint score: change from baseline [2, 6]: −0.6
Anxiety endpoint score: change from baseline [2, 6]: −1.8
Apathy endpoint score: change from baseline [2, 6]: −1.6
Delusions endpoint score: change from baseline [2, 6]: −1.4
Depression endpoint score: change from baseline [2, 6]: −1.1
Disinhibition endpoint score: change from baseline [2, 6]: −1.1
Elation endpoint score: change from baseline [2, 6]: −2.5
Hallucinations endpoint score: change from baseline [2, 6]: −1.4
Irritability endpoint score: change from baseline [2, 6]: −1.2
Wandering endpoint score: change from baseline [2, 6]: −1.3
Total NPI endpoint score: change from baseline ([2]; Patients with baseline NPI >20, 50 μg uid, p 0.019 vs placebo): −6.1
NPI total score, country adjusted difference vs placebo ([2]; 50 μg uid, p=0.026, 95% CI −4.1, −0.3): −2.1
NPI total score, country adjusted difference vs placebo ([2]; 25 kg bid (so in the source), p=0.064, 95% CI −3.8, 0.1): −1.8
total NPI score, country adjusted difference vs placebo ([2]; patients with baseline NPI>20, 25 μg bid, p=0.043, 95% CI −14.1, −0.2): −7.18
total NPI score, country adjusted difference vs placebo ([2]; patients with baseline NPI>20, 50 μg uid, p=0.019, 95% CI −14.4, −1.3): −7.86
catalepsy (Male Sprague Dawley rats [3]): did not produce catalepsy

O=C(CCCN1CCC(O)(c2ccc(Cl)cc2)CC1)c1ccc(F)cc1 [haloperidol, Haloperidol]
rats in which catalepsy was produced (Male Sprague Dawley rats [4]): 6 of 6
